Assay [1] deals with rats trained to discriminate cocaine. In words: animal or person. Particulars: Rattus norvegicus, ip, 0.25 h, read-out: ED50 (50% cocaine-lever responding).
For assay [2], the system named is dopamine transporter. Particulars: in words; literature; cited from earlier work.
Assay [3] relates to rats trained to discriminate cocaine.
Assay [4] has as its system nonhuman primates. Particulars: in words; literature; cited from earlier work.
Assay [5] addresses T1, dopamine transporter (Rattus norvegicus, UniProt P23977). Details: from tissue; host or cells: rat striatal membranes. Particulars: 0.5 nM [^3 H]-1b; rat striata; F. I. Carroll et al.; cited from earlier work.
Assay [6] concerns the target T1, dopamine transporter. In words: displacement of [^3 H]mazindol binding from rat striatal membranes. Particulars: for potency / affinity increase over cocaine, mazindol binding: relative to (-)-cocaine.
In assay [7] the target is T2, dopamine transporter (high-affinity uptake of [^3 H]dopamine into striatal nerve endings) (Rattus norvegicus, UniProt P23977).
T2 construct: striatal nerve endings (synaptosomes); from tissue; host or cells: striatal nerve endings (synaptosomes)
T2 sequence (P23977 whole entry): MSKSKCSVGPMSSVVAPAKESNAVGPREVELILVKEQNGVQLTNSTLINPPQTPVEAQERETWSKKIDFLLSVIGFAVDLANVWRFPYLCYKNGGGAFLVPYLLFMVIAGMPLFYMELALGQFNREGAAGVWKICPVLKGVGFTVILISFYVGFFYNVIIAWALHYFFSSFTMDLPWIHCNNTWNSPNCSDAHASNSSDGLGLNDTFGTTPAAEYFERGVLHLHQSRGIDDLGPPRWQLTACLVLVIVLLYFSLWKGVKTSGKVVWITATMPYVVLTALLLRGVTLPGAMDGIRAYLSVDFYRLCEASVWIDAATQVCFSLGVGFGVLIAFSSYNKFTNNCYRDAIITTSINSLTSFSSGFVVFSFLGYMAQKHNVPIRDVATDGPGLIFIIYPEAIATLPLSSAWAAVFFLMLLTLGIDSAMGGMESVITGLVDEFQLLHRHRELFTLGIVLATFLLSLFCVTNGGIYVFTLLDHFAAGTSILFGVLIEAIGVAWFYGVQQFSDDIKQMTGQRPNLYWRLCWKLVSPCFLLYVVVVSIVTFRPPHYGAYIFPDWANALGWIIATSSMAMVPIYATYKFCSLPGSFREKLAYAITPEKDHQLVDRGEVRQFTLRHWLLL
In words: inhibition of high-affinity uptake of [^3 H]dopamine into striatal nerve endings (synaptosomes). The format is biochemical.

[8] abbreviates: dose-response test, 0.625 mg/kg, 15 min, mean ± S.E.M.
The mark [9] stands for this setting: dose-response test, 1.25 mg/kg, 15 min, mean ± S.E.M.
Where [10] appears, read: dose-response test, 2.5 mg/kg, 15 min, mean ± S.E.M.
The mark [11] stands for this setting: dose-response test, 5.0 mg/kg, 15 min, mean ± S.E.M.
Where [12] appears, read: dose-response test, 10.0 mg/kg, 15 min, mean ± S.E.M.
The mark [13] stands for this setting: temporal test, 10.0 mg/kg, 5 min, mean ± S.E.M.
[14] abbreviates: temporal test, 10.0 mg/kg, 15 min, mean ± S.E.M.
The mark [15] stands for this setting: temporal test, 10.0 mg/kg, 60 min, mean ± S.E.M.
The mark [16] stands for this setting: temporal test, 10.0 mg/kg, 120 min, mean ± S.E.M.
Where [17] appears, read: mean ± SE (N), striatal synaptosomes, read-out: IC50 [^3 H] Dopamine Uptake.

“Also recorded” adds a separate entry of the source. Where two headings read alike, the source gives them in different places.

T1 sequence (P23977 whole entry): as above

Turning to `COC(=O)[C@H]1[C@@H](OC(=O)c2ccccc2)C[C@@H]2CC[C@H]1N2C` [(-)-cocaine, methyl 3-(benzoyloxy) -8-methyl-8-azabicyclo [3.2.1]octane-2 carboxylate, reference compound], the median effective dose (ED50) – broadly, the midpoint of the dose-response relation – in assay [1] is 1.7 mg/kg. For the same compound, the “binding to / inhibition of the dopamine transporter” value (“binding to / inhibition” below) in assay [2] is “binds to the dopamine transporter and inhibits dopamine transport”. Also, the “duration of complete cocaine-like response” value in assay [3] (cocaine 10 mg/kg) is “approximately 60 min”. Besides, the “injection period eliciting complete cocaine-like response” value in assay [3] (cocaine 10 mg/kg) amounted to 5 min. Also, the “response type at 120 min” value in assay [3] (cocaine, 120 min injection period, in words) is recorded as “elicited primarily saline-appropriate responding”. The “n/N (animals completing 20 responses / tested)” value in assay [3] (dose-response test, 0.625 mg/kg, 15 min) is listed as 7/7; in assay [3] (dose-response test, 1.25 mg/kg, 15 min), 7/7; in assay [3] (dose-response test, 2.5 mg/kg, 15 min), 7/7; in assay [3] (dose-response test, 5.0 mg/kg, 15 min), 7/7; in assay [3] (dose-response test, 10.0 mg/kg, 15 min), 7/7; in assay [3] (temporal test, 10.0 mg/kg, 5 min) it was 7/7. Further, the “n/N (animals completing 20 responses / tested)” value is 7/7 in assay [3] (temporal test, 10.0 mg/kg, 15 min); 7/7 in assay [3] (temporal test, 10.0 mg/kg, 30 min); 7/7 in assay [3] (temporal test, 10.0 mg/kg, 60 min); 7/7 in assay [3] (temporal test, 10.0 mg/kg, 120 min). For the same compound, the “% Drug responses” value in assay [3] (setting [8]) is given as 6 ± 2%; in assay [3] (setting [9]), 44 ± 18%; in assay [3] (setting [10]) it was 61 ± 16%; in assay [3] (setting [11]) it was 98 ± 2%; in assay [3] (setting [12]) it was 99 ± 1%; in assay [3] (setting [13]), 85 ± 13%. Moreover, the “% Drug responses” value was 99 ± 1% in assay [3] (setting [14]); 100% in assay [3] (temporal test, 10.0 mg/kg, 30 min, mean); 81 ± 14% in assay [3] (setting [15]); 31 ± 18% in assay [3] (setting [16]). Moreover, the “Rate (responses/min)” value is on record as 27.3 ± 5 responses/min in assay [3] (setting [8]); 21.3 ± 5 responses/min in assay [3] (setting [9]); 31.6 ± 16 responses/min in assay [3] (setting [10]); 89.0 ± 16 responses/min in assay [3] (setting [11]); 75.8 ± 13 responses/min in assay [3] (setting [12]); 28.2 ± 8 responses/min in assay [3] (setting [13]). In addition, the “Rate (responses/min)” value in assay [3] (setting [14]) came out at 75.8 ± 13 responses/min; in assay [3] (temporal test, 10.0 mg/kg, 30 min, mean ± S.E.M.) it was 60.6 ± 11 responses/min; in assay [3] (setting [15]), 23.0 ± 4 responses/min; in assay [3] (setting [16]), 27.7 ± 7 responses/min. Also, the response rates entry in assay [3] (in words, across test doses) is listed as “fairly stable across all test doses”. Further, the “substitution for the cocaine cue / drug-appropriate responding” value in assay [3] (in words, dose-dependence over the tested doses) is “increased in a dose-dependent manner”.
As to `COC(=O)[C@H]1[C@@H](c2ccccc2)C[C@@H]2CC[C@H]1N2C` [Compound 1a, 3β-phenyltropane-2β-carboxylic acid methyl ester], the “binding to / inhibition” value in assay [2] is “most potent compounds in binding and behavioral studies”. Besides, the “potency in behavioral studies” value in assay [4] was “most potent compounds in binding and behavioral studies”.
With `COC(=O)[C@H]1[C@@H](c2ccc(F)cc2)C[C@@H]2CC[C@H]1N2C` [Compound 1b, 3β-(p-fluorophenyl)tropane-2β-carboxylic acid methyl ether], in assay [2], the “binding to / inhibition” value is “most potent compounds in binding and behavioral studies”. The “potency in behavioral studies” value in assay [4] is “most potent compounds in binding and behavioral studies”.
In the case of `COC(=O)[C@H]1[C@@H](c2ccc(I)cc2)C[C@@H]2CC[C@H]1N2C` [Compound 1c], the “potency relative to (-)-cocaine, inhibition of [^3 H]-1b binding” value in assay [5] is 78 times.
Turning to `COC(=O)[C@H]1[C@@H](c2ccc(Cl)cc2)C[C@@H]2CC[C@H]1N2C` [Compound 1d, 3β-(p-chlorophenyl)tropane-2β-carboxylic acid methyl ester, reference compound], the “potency relative to (-)-cocaine, inhibition of [^3 H]-1b binding” value in assay [5] was 85 times. The IC50 (usually the point on the concentration scale where inhibition reaches its midpoint) turned out to be 1.7 ± 0.1 nM in assay [6] and 3.2 ± 0.1 nM in assay [7].
As to `C=C[C@H]1[C@@H](OC(=O)c2ccccc2)C[C@@H]2CC[C@H]1N2C` [Compound 2a, 3β-(Benzoyloxy)-2β-vinyltropane], the “activity relative to parent structure (cocaine)” value in assay [6] (Table I data, in words) is listed as “not substantially less active than the parent structure”. For the same compound, the concentration for half-maximal inhibition (IC50) in assay [7] (setting [17]) was determined as 1120 ± 390 nM. Also, in assay [7] (relative to (-)-cocaine), the “fold less potent than cocaine, dopamine uptake” value is “two-fold less potent”.
Take `CN1[C@H]2CC[C@@H]1[C@@H](/C=C/Cl)[C@@H](OC(=O)c1ccccc1)C2` [Compound 2b, 3β-(Benzoyloxy)-2β-[(E)-2-chlorovinyl]tropane]: in assay [6], the “potency / affinity increase over cocaine, mazindol binding” value was “approximate twofold higher affinity; also recorded: about two-fold more potent than cocaine”. For the same compound, in assay [7] (setting [17]), the IC50 stood at 368 ± 190 nM.
Turning to `CN1[C@H]2CC[C@@H]1[C@@H](/C=C/Cl)[C@@H](c1ccc(Cl)cc1)C2` [Compound 2d, 3β-(4-Chlorophenyl)-2β-[(E)-2-chlorovinyl]tropane], the IC50 was found to be 0.72 ± 0.06 nM in assay [6] and 1.26 ± 0.3 nM in assay [7]. Moreover, the “potency of 2d relative to 2c” value in assay [6] (relative to 2c, binding affinity) is on record as “doubling the potency”.
Consider `CCOC(=O)/C=C/[C@H]1[C@@H](OC(=O)c2ccccc2)C[C@@H]2CC[C@H]1N2C` [Compound 2e, 3β-(Benzoyloxy)-2β-[(E)-2-(ethoxycarbonyl)vinyl]tropane], for which, in assay [6], the IC50 is 50 ± 10 nM and the “potency / affinity increase over cocaine, mazindol binding” value is 4-5 fold. The IC50 in assay [7] (setting [17]) was found to be 310 ± 10 nM. Besides, the “potency increase over cocaine, dopamine uptake” value in assay [7] (relative to (-)-cocaine) is 4-5 times.
As to `CCOP(=O)(/C=C/[C@H]1[C@@H](OC(=O)c2ccccc2)C[C@@H]2CC[C@H]1N2C)OCC` [Compound 2f, 3β-Benzoyloxy-2β-[(E)-2-(diethoxyphosphono)vinyl]tropane], the results for the IC50 in assay [6] and in assay [7] were 4850 ± 470 nM and 5500 ± 70 nM, respectively. For the same compound, in assay [7] (in words), the “inhibition of dopamine uptake” value is reported as “found to inhibit dopamine uptake”. Also, the “fold less potent than cocaine, dopamine uptake” value in assay [7] (relative to (-)-cocaine) is recorded as “about 10 fold”.
Turning to `OC1(c2ccc(Cl)cc2)c2ccccc2C2=NCCN21` (stereo not drawn) [mazindol], the “binding to / inhibition” value in assay [2] is reported as “potent inhibitors of binding at the transport site for dopamine”. For the same compound, the “potency in maintaining self-administration” value in assay [4] is reported as “potent in maintaining self-administration”.
For `COC(=O)C(c1ccccc1)C1CCCCN1` (stereo not drawn) [methylphendiate], in assay [2], the “binding to / inhibition” value is recorded as “potent inhibitors of binding at the transport site for dopamine”. Moreover, the “potency in maintaining self-administration” value in assay [4] is “potent in maintaining self-administration”.
`CN1Cc2c(N)cccc2C(c2ccccc2)C1` (stereo not drawn) [nomifensine]: the “potency in maintaining self-administration” value in assay [4] is “potent in maintaining self-administration”.

Values taken from patent publication US5391744A (priority 1993, dated 1995).
